Consider three molecules from patent publication US20100063020A1, “ORAL PHARMACEUTICAL FORMULATIONS AND METHODS FOR PRODUCING AND USING SAME” (priority 2004, published 2010).

Data set [1] can be described thus: Solvent stability of low melt form (slurry in H2O:EtOH 90:10). Type of data set: physicochemical. Here is the method:
17-AAG may be prepared from geldanamycin by reacting with allyamine in dry THF under a nitrogen atmosphere. The crude product may be purified by slurrying in H2O:EtOH (90:10), and the washed crystals obtained have a melting point of 206-212° C. by capillary melting point technique. […] The two 17-AAG products are designated as the low melt form and high melt form.
MP=147-155° C. ^1 H NMR and HPLC are consistent with the desired product.

Data set [2] in a line: Intrinsic dissolution of high melt and low melt forms of 17-AAG in ethanol. Type of data set: physicochemical. The method, then: The performance of an active pharmaceutical ingredient (i.e., dissolution rate) can be affected by polymorphic state. The intrinsic dissolution of the high melt and low melt forms of 17-AAG were determined in ethanol. Ethanol was chosen as the solvent since 17-AAG is soluble in ethanol.

The next data set is described as follows: in vitro. Type of data set: in vitro ADME. The following applies: human, Caco-2. An excerpt:
The permeability of the pharmaceutical active ingredient across the gastrointestinal membrane may be estimated from it permeability across a Caco-2 cell monolayer using standard techniques (e.g. Chong S et al. Pharmaceutical Research 1997 14(12):1835-1837). The reference is hereby expressly incorporated by reference.
Propranolol was included in each assay as a high permeability control compound.

SMILES strings stand for the structures.

For the molecule `C=CCNC1=C2C[C@@H](C)C[C@H](OC)[C@H](O)[C@@H](C)/C=C(\C)[C@H](OC(N)=O)[C@@H](OC)/C=C\C=C(/C)C(=O)NC(=CC1=O)C2=O` [low melt form of 17-AAG, 17-allylamino-17-demethoxygeldanamycin], the “conversion of polymorphic form on slurrying” value in data set [1] is reported as “no conversion to the high melt form was observed”. In data set [2], the intrinsic dissolution rate is given as 0.885 mg/cm^2/min and the “percent higher intrinsic dissolution rate of low melt form vs high melt form” value is listed as 60%.

Molecule `C=CCNC1=C2C[C@@H](C)C[C@H](OC)[C@H](O)[C@@H](C)/C=C(\C)[C@H](OC(N)=O)[C@@H](OC)/C=C\C=C(/C)C(=O)NC(=CC1=O)C2=O` [high melt form, 17-allylamino-17-demethoxygeldanamycin] returned an intrinsic dissolution rate in data set [2] of 0.550 mg/cm^2/min.

In turn, `CC(C)NCC(O)COc1cccc2ccccc12` (centres unmarked) [propranolol] displayed a Papp in the data set “in vitro” of 16 ×10⁻⁶ cm/s.
